Results taken from ChEMBL document CHEMBL3112450, “Synthesis and in vitro antitumor evaluation of primary amine substituted quinazoline linked benzimidazole” (Bioorg Med Chem Lett, 2014).

Key:
Format in all cases: functional
MDA-MB-468 = test: Cytotoxicity against human MDA-MB-468 cells assessed as cell growth at 10^-5 M after 48 hrs by SRB assay; conditions: MDA-MB-468, 48 h, read-out: Activity
T47D = test: Cytotoxicity against human T47D cells assessed as cell growth at 10^-5 M after 48 hrs by SRB assay; conditions: read-out: Activity
MDA-MB-231 [1] = test: Cytotoxicity against human MDA-MB-231 cells assessed as cell growth at 10^-5 M after 48 hrs by SRB assay; conditions: MDA-MB-231, 48 h, read-out: Activity
DU-145 = test: Cytotoxicity against human DU145 cells assessed as cell growth at 10^-5 M after 48 hrs by SRB assay; conditions: DU-145, 48 h, read-out: Activity
[2] = Cytotoxicity against human UO31 cells assessed as cell growth at 10^-5 M after 48 hrs by SRB assay; conditions: UO-31, 48 h, read-out: Activity
PC-3 = test: Cytotoxicity against human PC3 cells assessed as cell growth at 10^-5 M after 48 hrs by SRB assay; conditions: PC-3, 48 h, read-out: Activity
TK-10 = test: Cytotoxicity against human TK10 cells assessed as cell growth at 10^-5 M after 48 hrs by SRB assay; conditions: TK-10, 48 h, read-out: Activity
ACHN [3] = test: Cytotoxicity against human ACHN cells assessed as cell growth at 10^-5 M after 48 hrs by SRB assay; conditions: read-out: Activity
CAKI-1 = test: Cytotoxicity against human Caki1 cells assessed as cell growth at 10^-5 M after 48 hrs by SRB assay; conditions: CAKI-1, 48 h, read-out: Activity
UACC-62 = test: Cytotoxicity against human UACC62 cells assessed as cell growth at 10^-5 M after 48 hrs by SRB assay; conditions: UACC-62, 48 h, read-out: Activity
U-251 = test: Cytotoxicity against human U251 cells assessed as cell growth at 10^-5 M after 48 hrs by SRB assay; conditions: U-251, 48 h, read-out: Activity
SNB-19 [4] = test: Cytotoxicity against human SNB19 cells assessed as cell growth at 10^-5 M after 48 hrs by SRB assay; conditions: SNB-19, 48 h, read-out: Activity
SF-295 = test: Cytotoxicity against human SF295 cells assessed as cell growth at 10^-5 M after 48 hrs by SRB assay; conditions: SF-295, 48 h, read-out: Activity
SF-539 [5] = test: Cytotoxicity against human SF539 cells assessed as cell growth at 10^-5 M after 48 hrs by SRB assay; conditions: SF-539, 48 h, read-out: Activity
HCT-116 [6] = test: Cytotoxicity against human HCT116 cells assessed as cell growth at 10^-5 M after 48 hrs by SRB assay; conditions: HCT-116, 48 h, read-out: Activity
COLO 205 = test: Cytotoxicity against human COLO205 cells assessed as cell growth at 10^-5 M after 48 hrs by SRB assay; conditions: COLO 205, 48 h, read-out: Activity
NCI-H460 = test: Cytotoxicity against human NCI-H460 cells assessed as cell growth at 10^-5 M after 48 hrs by SRB assay; conditions: NCI-H460, 48 h, read-out: Activity
NCI-H226 [7] = test: Cytotoxicity against human NCI-H226 cells assessed as cell growth at 10^-5 M after 48 hrs by SRB assay; conditions: NCI-H226, 48 h, read-out: Activity
HOP-92 = test: Cytotoxicity against human HOP92 cells assessed as cell growth at 10^-5 M after 48 hrs by SRB assay; conditions: HOP-92, 48 h, read-out: Activity
SR = test: Cytotoxicity against human SR cells assessed as cell growth at 10^-5 M after 48 hrs by SRB assay; conditions: read-out: Activity
RPMI-8226 = test: Cytotoxicity against human RPMI8226 cells assessed as cell growth at 10^-5 M after 48 hrs by SRB assay; conditions: RPMI-8226, 48 h, read-out: Activity
CCRF-CEM = test: Cytotoxicity against human CCRF-CEM cells assessed as cell growth at 10^-5 M after 48 hrs by SRB assay; conditions: read-out: Activity
IGROV-1 = test: Cytotoxicity against human IGROV1 cells assessed as cell growth at 10^-7 M after 48 hrs by SRB assay; conditions: IGROV-1, 48 h, read-out: Activity
M14 = test: Cytotoxicity against human M14 cells assessed as cell growth at 10^-7 M after 48 hrs by SRB assay; conditions: M14, 48 h, read-out: Activity
SF-539 [8] = test: Cytotoxicity against human SF539 cells assessed as cell growth at 10^-7 M after 48 hrs by SRB assay; conditions: SF-539, 48 h, read-out: Activity
HT-29 = test: Cytotoxicity against human HT-29 cells assessed as cell growth at 10^-7 M after 48 hrs by SRB assay; conditions: HT-29, 48 h, read-out: Activity
NCI-H322M = test: Cytotoxicity against human NCI-H322M cells assessed as cell growth at 10^-7 M after 48 hrs by SRB assay; conditions: read-out: Activity
HL-60(TB) [9] = test: Cytotoxicity against human HL-60(TB) cells assessed as cell growth at 10^-7 M after 48 hrs by SRB assay; conditions: HL-60, 48 h, read-out: Activity
ACHN [10] = test: Cytotoxicity against human ACHN cells assessed as cell growth at 10^-4 M after 48 hrs by SRB assay; conditions: read-out: Activity
SK-MEL-5 = test: Cytotoxicity against human SK-MEL-5 cells assessed as cell growth at 10^-4 M after 48 hrs by SRB assay; conditions: SK-MEL-5, 48 h, read-out: Activity
SK-MEL-28 = test: Cytotoxicity against human SK-MEL-28 cells assessed as cell growth at 10^-8 M after 48 hrs by SRB assay; conditions: SK-MEL-28, 48 h, read-out: Activity
HL-60(TB) [11] = test: Cytotoxicity against human HL-60(TB) cells assessed as cell growth at 10^-8 M after 48 hrs by SRB assay; conditions: HL-60, 48 h, read-out: Activity
SF-268 = test: Cytotoxicity against human SF268 cells after 48 hrs by SRB assay; conditions: SF-268, 48 h
HCT-15 = test: Cytotoxicity against human HCT15 cells after 48 hrs by SRB assay; conditions: HCT-15, 48 h
HCT-116 [12] = test: Cytotoxicity against human HCT116 cells after 48 hrs by SRB assay; conditions: HCT-116, 48 h
SNB-19 [13] = test: Cytotoxicity against human SNB19 cells assessed as cell growth at 10^-6 M after 48 hrs by SRB assay; conditions: SNB-19, 48 h, read-out: Activity
HCT-116 [14] = test: Cytotoxicity against human HCT116 cells assessed as cell growth at 10^-6 M after 48 hrs by SRB assay; conditions: HCT-116, 48 h, read-out: Activity
NCI-H226 [15] = test: Cytotoxicity against human NCI-H226 cells assessed as cell growth at 10^-6 M after 48 hrs by SRB assay; conditions: NCI-H226, 48 h, read-out: Activity
MDA-MB-231 [16] = test: Cytotoxicity against human MDA-MB-231 cells assessed as cell growth at 10^-7 M after 48 hrs by SRB assay; conditions: MDA-MB-231, 48 h, read-out: Activity

In the case of `C=CCn1c(C)nc2ccc(Nc3nc(Nc4ncccn4)nc4ccccc34)cc21`, the growth at 10 µM (MDA-MB-468) is reported as 78.3%, the growth at 10 µM (T47D) is reported as 55.8% and the growth at 10 µM (MDA-MB-231 [1]) is reported as 84.4%. For the same molecule, the growth at 10 µM (DU-145) was 112%, the growth at 10 µM [2] was 82.1% and the growth at 10 µM (PC-3) was 89.2%. It also gave a growth at 10 µM (TK-10) of 118%, a growth at 10 µM (ACHN [3]) of 103% and a growth at 10 µM (CAKI-1) of 75.6%. The growth at 10 µM (UACC-62) was 92.6%, the growth at 10 µM (U-251) was 89.8% and the growth at 10 µM (SNB-19 [4]) was 97.6%. It also gave a growth at 10 µM (SF-295) of 86.9%, a growth at 10 µM (SF-539 [5]) of 103% and a growth at 10 µM (HCT-116 [6]) of 94.2%. The growth at 10 µM (COLO 205) was 102%, the growth at 10 µM (NCI-H460) was 97.8% and the growth at 10 µM (NCI-H226 [7]) was 92.2%. It also gave a growth at 10 µM (HOP-92) of 70.5%, a growth at 10 µM (SR) of 121% and a growth at 10 µM (RPMI-8226) of 70.7%. It also gave a growth at 10 µM (CCRF-CEM) of 84.8%.

`C=CCn1c(C)nc2ccc(Nc3nc(NCCO)nc4ccccc34)cc21` showed a growth at 10 µM (MDA-MB-468) of 119%, a growth at 10 µM (T47D) of 95.8% and a growth at 10 µM (MDA-MB-231 [1]) of 84.5%. The growth at 10 µM (DU-145) was 107%, the growth at 10 µM [2] was 92.6% and the growth at 10 µM (PC-3) was 93.8%. For the same molecule, the growth at 10 µM (TK-10) was 124%, the growth at 10 µM (ACHN [3]) was 104% and the growth at 10 µM (CAKI-1) was 99%. The growth at 10 µM (UACC-62) was 92.7%, the growth at 10 µM (U-251) was 98.5% and the growth at 10 µM (SNB-19 [4]) was 93.9%. It also gave a growth at 10 µM (SF-295) of 146%, a growth at 10 µM (SF-539 [5]) of 104% and a growth at 10 µM (HCT-116 [6]) of 94.7%. For the same molecule, the growth at 10 µM (COLO 205) was 106%, the growth at 10 µM (NCI-H460) was 103% and the growth at 10 µM (NCI-H226 [7]) was 107%. The growth at 10 µM (HOP-92) was 73.9%, the growth at 10 µM (SR) was 104% and the growth at 10 µM (RPMI-8226) was 95.7%. It also gave a growth at 10 µM (CCRF-CEM) of 88.5%.

With `C=CCn1c(C)nc2cc(Nc3nc(Nc4ccc5nc(C)n(CC=C)c5c4)c4ccccc4n3)ccc21` the growth at 0.1 µM (IGROV-1) was 106%, the growth at 0.1 µM (M14) was 98% and the growth at 0.1 µM (SF-539 [8]) was 101%. It also gave a growth at 0.1 µM (HT-29) of 103%, a growth at 0.1 µM (NCI-H322M) of 91% and a growth at 0.1 µM (HL-60(TB) [9]) of 96%. The growth at 100 µM (ACHN [10]) was -38%, the growth at 100 µM (SK-MEL-5) was -37% and the growth at 0.01 µM (SK-MEL-28) was 108%. For the same molecule, the growth at 0.01 µM (HL-60(TB) [11]) was 98%, the growth at 10 µM (MDA-MB-468) was -85% and the growth at 10 µM (T47D) was -60.4%. For the same molecule, the growth at 10 µM (MDA-MB-231 [1]) was -89%, the growth at 10 µM (DU-145) was -100% and the growth at 10 µM [2] was -99%. It also gave a growth at 10 µM (PC-3) of -100%, a growth at 10 µM (TK-10) of -100% and a growth at 10 µM (ACHN [3]) of -100%. It also gave a growth at 10 µM (CAKI-1) of -95%, a growth at 10 µM (UACC-62) of -94% and a GI50 (SF-268) of 1040 nM. The LC50 (50% lethal concentration) (SF-268) was 4730 nM, the TGI (SF-268) was 2210 nM and the GI50 (HCT-15) was 352 nM. The GI50 (HCT-116 [12]) was 214 nM, the growth at 10 µM (U-251) was -90.7% and the growth at 10 µM (SNB-19 [4]) was -75%. It also gave a growth at 10 µM (SF-295) of -100%, a growth at 10 µM (SF-539 [5]) of -100% and a growth at 10 µM (HCT-116 [6]) of -96.5%. It also gave a growth at 10 µM (COLO 205) of -100%, a growth at 10 µM (NCI-H460) of -84.2% and a growth at 10 µM (NCI-H226 [7]) of -47.1%. It also gave a growth at 10 µM (HOP-92) of -97%, a growth at 10 µM (SR) of -44.2% and a growth at 10 µM (RPMI-8226) of -41%. The growth at 10 µM (CCRF-CEM) was -29%, the growth at 1 µM (SNB-19 [13]) was 54% and the growth at 1 µM (HCT-116 [14]) was -54%. The growth at 1 µM (NCI-H226 [15]) was 89% and the growth at 0.1 µM (MDA-MB-231 [16]) was 101%.
